Test results: PubChem BioAssay (NCI)
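These data come from cells grown in 96-well plates and exposed to compound for 48 hours at five concentrations. TGI: total growth inhibition.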

Tests used:
Assay in all cases: DTP human tumour cell line panel, 48 h
BT-549 breast = system: BT-549 breast
NCI-H522 lung = system: NCI-H522 lung
NCI/ADR-RES ovarian = system: NCI/ADR-RES ovarian
M19-MEL melanoma = system: M19-MEL melanoma
SNB-78 CNS = system: SNB-78 CNS

Row | Compound | TGI (BT-549 breast) [µM] | TGI (NCI-H522 lung) [µM] | TGI (NCI/ADR-RES ovarian) [µM] | TGI (M19-MEL melanoma) [µM] | TGI (SNB-78 CNS) [µM]
1 | Cc1cc(C)c(S(=O)(=O)N(CCCCN)OCCCN)c(C)c1 | 33.8 | 29.9 | 36.5 |  | 
2 | COc1cc(C2C3=C(CCC3=O)Oc3cc4c(cc32)OCO4)cc(OC)c1OC (stereo not given) |  |  |  | > 100 | > 100
